The values below come from patent publication US20150099645A1, “MEANS AND METHODS FOR DIAGNOSTICS AND TH[…] DISEASES” (priority 2012, published 2015).

The test system of assay [1] is T cells (CD3+). The assay is described as follows: GVHD mouse model, LiCl treatment of allogeneic mice, CD3+ T cells of spleen counted by flow cytometry. The format is in vivo. The note with it: 2.0 mg/kg LiCl once a day, day 3 post-transplant. The procedure: Mice are divided into 3 groups (Untreated, Syngeneic and Allogeneic) per time point with 6-12 mice per group. The untreated group mice (without irradiation) were injected with plain medium. The syngeneic group irradiated (600 rads) Balb/c mice were injected with splenocytes (30×10̂6) from matched donor Balb/c mice. The allogeneic group irradiated (600 rads) Balb/c mice were injected with splenocytes (30×10̂6) from unmatched donor C57Bl/6 mice. An additional 2-3 mice in each group were injected with 2.0 mg/kg LiCl (dissolved 1:2 LiCl:PBS), once a day from day 1 to day 5 post-transplant, sacrificed at days 3 and 5.
Total T cells (CD3+) were collected from spleens of mice of the 3 groups of the GVHD model as described above. Cells were stained for CD3 and counted by Flow Cytometry.
In order to explore the effect of GSK-3β activation state on T-cell proliferation, the GVHD model mice were treated with Lithium chloride (LiCl). Lithium chloride (LiCl) is known to affect GSK-3β activation state by regulating its phosphorylation state. Lithium chloride (LiCl) treatments were given to a separate group of allogeneic mice.

In assay [2] the test system is C57Bl/6 and Balb/c splenocytes. The assay is described as follows: Mixed lymphocyte reaction, XTT proliferation assay. It counts as cell-based, mouse. As to conditions: for proliferation level: versus control (0 mM). The procedure:
Splenocytes were harvested from untreated Balb/c and C57BL/6 mice. C57BL/6 cells were incubated in a flat bottom 96 well plate for 96 h with either irradiated (1500 rads) or not irradiated Balb/c cells as indicated, at the indicated concentrations. XTT reagent for proliferation assay was added 24 h before reading. Plate was read at 620 nm.
Splenocytes were collected from spleens of C57Bl/6 and Balb/c mice and cultured ex-vivo and assayed for proliferation by XTT (tetrazolium salt). The C57Bl/6 and Balb/c cells were cultured ex-vivo together to mimic a GVHD reaction. The cells were cultured in 3 groups, having different cell concentrations: • 2×2: 2×10̂5 C57Bl/6 and 2×10̂5 balb/c cells • 1×1: 1×10̂5 C57Bl/6 and 1×10̂5 balb/c cells • 2×*2: 2×10̂5 C57Bl/6 and 2×10̂5 irradiated balb/c cells
In order to test the effect of GSK-3β activation state on cell proliferation, Lithium Chloride (a known inhibitor of GSK-3β) was added at different concentrations. […] Furthermore, it can be seen that the effect of LiCl depends on the confluence (concentration) of cells.

Consider `[Cl-].[Li+]` [LiCl, Lithium chloride], for which the “amount of T-cells” value in assay [1] is reported as “increased”. Moreover, the proliferation level result is on record as “significantly lower” in assay [2] (12.5 mM LiCl, 2×2 group (2×10^5 C57Bl/6 and 2×10^5 balb/c cells)); “significantly higher” in assay [2] (25 mM LiCl, 1×1 group (1×10^5 C57Bl/6 and 1×10^5 balb/c cells)); “significantly higher” in assay [2] (25 mM LiCl, 2×2 group). Besides, the effect on proliferation entry in assay [2] (doses smaller than 12.5 mM) is on record as “no apparent effect”.
